This note sets out measurements from patent US20240228469A1, “PCSK9 INHIBITORS AND METHODS OF USE THEREOF” (AstraZeneca AB, priority 2022, published 2024).

For assay [1], the target named is T1, PCSK9 (Homo sapiens, UniProt Q8NBP7, G670E/V474I). Nature of the assay: Assay 3 PCSK9 LDL-C uptake assay in HepG2 cells. The assay is classed as cell-based. The settings on record: 125 nM PCSK9, pHrodo Red-LDL, read-out: Assay 3 LDL uptake potency. On the set-up: TEV site (C); His6 (C); host or cells: added to HepG2 (ATCC #HB-8065). Put shortly: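 HepG2 cells were plated for 24 h, then exposed for 24 h at 37 °C to compounds (half-log series, 10 μM top) with 125 nM exogenous PCSK9. pHrodo Red-LDL ([…]) uptake was then imaged by fluorescence at 4 h and 24 h. Signal was normalized as % effect between DMSO and 100 nM evolocumab, with a four-parameter logistic fit.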
T1 sequence (Q8NBP7 with tags, fused parts or gaps V474I/G670E): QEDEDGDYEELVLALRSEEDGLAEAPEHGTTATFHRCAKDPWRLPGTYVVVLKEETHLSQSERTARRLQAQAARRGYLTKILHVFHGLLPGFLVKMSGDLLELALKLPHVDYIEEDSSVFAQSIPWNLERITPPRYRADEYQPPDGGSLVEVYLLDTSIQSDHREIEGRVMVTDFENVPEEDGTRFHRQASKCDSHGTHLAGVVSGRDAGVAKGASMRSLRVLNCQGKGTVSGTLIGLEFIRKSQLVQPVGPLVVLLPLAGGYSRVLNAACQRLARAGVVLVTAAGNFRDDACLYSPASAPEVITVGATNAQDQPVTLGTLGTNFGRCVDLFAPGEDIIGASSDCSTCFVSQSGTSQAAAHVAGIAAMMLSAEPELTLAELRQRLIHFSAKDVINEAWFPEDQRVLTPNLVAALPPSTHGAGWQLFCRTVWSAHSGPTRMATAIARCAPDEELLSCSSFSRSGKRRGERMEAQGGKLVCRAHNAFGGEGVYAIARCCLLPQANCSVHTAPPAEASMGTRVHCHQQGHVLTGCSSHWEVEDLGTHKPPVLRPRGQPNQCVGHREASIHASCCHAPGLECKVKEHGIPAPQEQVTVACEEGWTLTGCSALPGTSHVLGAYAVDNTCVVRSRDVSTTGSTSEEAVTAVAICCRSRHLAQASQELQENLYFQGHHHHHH

In assay [2] the target is T2, potassium ion channel hERG (Homo sapiens, UniProt Q12809).
T2 construct: expressed in transfected cells; host or cells: Chinese hamster ovary K1 (CHO)
T2 sequence (Q12809 whole entry): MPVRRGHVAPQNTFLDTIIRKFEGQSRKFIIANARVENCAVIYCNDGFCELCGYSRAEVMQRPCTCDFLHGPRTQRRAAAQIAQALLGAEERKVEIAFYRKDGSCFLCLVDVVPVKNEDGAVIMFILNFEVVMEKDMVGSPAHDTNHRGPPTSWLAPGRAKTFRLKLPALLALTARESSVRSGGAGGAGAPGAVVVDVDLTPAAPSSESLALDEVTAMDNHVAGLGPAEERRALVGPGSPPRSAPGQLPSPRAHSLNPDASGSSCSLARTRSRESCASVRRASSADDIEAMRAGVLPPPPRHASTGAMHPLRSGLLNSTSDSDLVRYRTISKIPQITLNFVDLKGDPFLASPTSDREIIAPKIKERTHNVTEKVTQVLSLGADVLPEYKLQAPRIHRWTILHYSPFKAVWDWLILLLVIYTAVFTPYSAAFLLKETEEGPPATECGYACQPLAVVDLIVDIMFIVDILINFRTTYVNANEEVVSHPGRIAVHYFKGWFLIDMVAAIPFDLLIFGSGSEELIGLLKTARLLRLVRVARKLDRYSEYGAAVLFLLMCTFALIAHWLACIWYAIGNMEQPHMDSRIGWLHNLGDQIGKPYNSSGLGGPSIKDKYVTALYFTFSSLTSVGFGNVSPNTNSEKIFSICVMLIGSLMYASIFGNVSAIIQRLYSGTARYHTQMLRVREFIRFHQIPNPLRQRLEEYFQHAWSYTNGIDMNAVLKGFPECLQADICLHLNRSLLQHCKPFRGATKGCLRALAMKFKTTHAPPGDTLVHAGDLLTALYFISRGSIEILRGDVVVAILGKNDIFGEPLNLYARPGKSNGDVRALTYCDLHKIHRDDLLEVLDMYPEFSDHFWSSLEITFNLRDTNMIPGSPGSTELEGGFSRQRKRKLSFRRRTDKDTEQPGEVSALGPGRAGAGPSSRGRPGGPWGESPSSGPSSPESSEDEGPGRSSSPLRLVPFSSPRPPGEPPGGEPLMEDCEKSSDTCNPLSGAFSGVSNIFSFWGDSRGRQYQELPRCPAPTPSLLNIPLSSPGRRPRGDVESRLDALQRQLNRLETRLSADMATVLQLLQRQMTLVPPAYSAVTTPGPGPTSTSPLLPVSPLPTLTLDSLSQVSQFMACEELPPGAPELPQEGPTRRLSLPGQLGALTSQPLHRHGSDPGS
Nature of the assay: Assay 5 hERG assay (patch clamp, CHO cells over-expressing hERG). The note with it: SyncroPatch 384PE, room temperature, geometric mean, read-out: Assay 5 (hERG Hu CHO if EPh CR-Syncro) GMean IC50. The assay is classed as cell-based. Put shortly:
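hERG currents recorded by automated patch clamp at room temperature in CHO-K1 cells, 6-point cumulative concentrations. SyncroPatch runs used KF-based internal (pH 7.2) and NMDG-containing external solution (pH 7.4), 0.33% DMSO; QPatchII runs used 2% or 0.4% DMSO. Only wells meeting seal-resistance and current-size criteria kept.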

In assay [3] the target is T1, PCSK9. As to the kind of experiment: biochemical.
Assay [4] has as its target GSK3β (Glycogen synthase kinase-3 beta) (Homo sapiens, UniProt P49841). As to the kind of experiment: Assay 6 GSK3β assay (ThermoFisher Z-Lyte FRET). The assay is classed as biochemical. The note with it: ATP Conc: 10 μM, geometric mean; read-out: Assay 6 (GSK3β FRET-Z-Lyte Cr) GMean IC50. Put shortly: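 Z-Lyte FRET: 0.22-0.92 ng kinase with 2 μM Ser/Thr 09 peptide in HEPES pH 7.5, MgCl2, EGTA, 60 min at room temperature, then 60 min development. Compounds in 1% DMSO, 10-point 3-fold series from 10 μM; sigmoidal dose-response fit.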

GSK3β (Glycogen synthase kinase-3 beta), sequence (P49841 whole entry): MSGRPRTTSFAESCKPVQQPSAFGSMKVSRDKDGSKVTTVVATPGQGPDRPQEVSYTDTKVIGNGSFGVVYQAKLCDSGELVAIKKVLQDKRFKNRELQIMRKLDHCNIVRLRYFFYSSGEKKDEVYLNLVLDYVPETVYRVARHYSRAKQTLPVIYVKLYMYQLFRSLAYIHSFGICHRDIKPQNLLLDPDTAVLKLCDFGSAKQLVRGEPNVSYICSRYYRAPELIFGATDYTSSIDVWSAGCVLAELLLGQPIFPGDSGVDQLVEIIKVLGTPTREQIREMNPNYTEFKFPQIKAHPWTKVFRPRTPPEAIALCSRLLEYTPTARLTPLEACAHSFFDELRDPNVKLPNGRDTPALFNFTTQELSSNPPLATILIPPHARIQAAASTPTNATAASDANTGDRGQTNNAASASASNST

As to `O=c1c(Cl)cccn1-c1ccc(N[C@H]2CC[C@H](Nc3ncc(C4CC4)nn3)C2)nc1` [Example 55, 3-Chloro-6′-(((1S,3S)-3-((6-cyclopropyl-1,2,4-triazin-3-yl)amino)cyclopentyl)amino)-2H-[1,3′-bipyridin]-2-one], the EC50 on PCSK9 [1] was found to be 100 nM. The half-maximal inhibitory concentration (IC50) in assay [2] stood at 30.3 µM; against PCSK9 [3], 1 nM; in assay [4], 1.6 µM.
As for `N#Cc1cccn(-c2ccc(N[C@H]3CC[C@H](Nc4ncc(C5CC5)nn4)C3)nc2)c1=O` [Example 58, 6′-(((1S,3S)-3-((6-Cyclopropyl-1,2,4-triazin-3-yl)amino)cyclopentyl)amino)-2-oxo-2H-[1,3′-bipyridine]-3-carbonitrile], the EC50 at PCSK9 [1] was determined as 100 nM. The IC50 in assay [2] was greater than 40 µM; on PCSK9 [3] it was 1.6 nM; in assay [4], greater than 10 µM.
Consider `Cc1cnc(N[C@H]2CC[C@H](Nc3ccc(-n4cccc(-c5cnn(C)c5)c4=O)cn3)C2)nn1` [Example 198, 6′-(((1S,3S)-3-((6-Methyl-1,2,4-triazin-3-yl)amino)cyclopentyl)amino)-3-(1-methyl-1H-pyrazol-4-yl)-2H-[1,3′-bipyridin]-2-one], for which the EC50 at PCSK9 [1] worked out at 100 nM. Besides, the IC50 is greater than 40.1 µM in assay [2], 2.9 nM against PCSK9 [3] and greater than 10 µM in assay [4].
Regarding `O=c1c(OC(F)(F)F)cccn1-c1ccc(N[C@H]2CC[C@H](Nc3ncc(C4CC4)nn3)C2)nc1` [Example 52, 6′-(((1S,3S)-3-((6-Cyclopropyl-1,2,4-triazin-3-yl)amino)cyclopentyl)amino)-3-(trifluoromethoxy)-2H-[1,3′-bipyridin]-2-one], the EC50 on PCSK9 [1] was 100 nM. The results for the IC50 (in assay [2]; at PCSK9 [3]; in assay [4]) were 39.9 µM, 2.3 nM and greater than 10 µM, respectively.
As to `Cc1cnc(N[C@H]2CC[C@H](Nc3ccc(-n4ccccc4=O)cn3)C2)nn1` [Example 67, 6′-(((1S,3S)-3-((6-Methyl-1,2,4-triazin-3-yl)amino)cyclopentyl)amino)-2H-[1,3′-bipyridin]-2-one], on PCSK9 [1], the EC50 is 600 nM. The IC50 in assay [2] is greater than 40 µM; against PCSK9 [3], 16 nM; in assay [4], 2.1 µM.
In the same order, the values of `COc1cccn(-c2ccc(N[C@H]3CC[C@H](Nc4ncc(C5CC5)nn4)C3)nc2)c1=O` [Example 64, 6′-(((1S,3S)-3-((6-Cyclopropyl-1,2,4-triazin-3-yl)amino)cyclopentyl)amino)-3-methoxy-2H-[1,3′-bipyridin]-2-one] are 200 nM, greater than 40 µM, 1.5 nM and 0.385 µM.
As to `Cc1cnc(N[C@H]2CC[C@H](Nc3ccc(-n4c(=O)ccc5cccnc54)cn3)C2)nn1` [Example 197, 1-(6-(((1S,3S)-3-((6-Methyl-1,2,4-triazin-3-yl)amino)cyclopentyl)amino)pyridin-3-yl)-1,8-naphthyridin-2(1H)-one], the EC50 at PCSK9 [1] is 100 nM. Also, the IC50 in assay [2] is greater than 40.1 µM; against PCSK9 [3], 2.5 nM; in assay [4], greater than 10 µM.
As for `Cc1cnc(N[C@H]2CC[C@H](Nc3ccc(-n4cccc(C(F)(F)F)c4=O)cn3)C2)nn1` [Example 135, 6′-(((1S,3S)-3-((6-Methyl-1,2,4-triazin-3-yl)amino)cyclopentyl)amino)-3-(trifluoromethyl)-2H-[1,3′-bipyridin]-2-one], at PCSK9 [1], the EC50 stood at 100 nM. The values for the 50% inhibitory concentration (IC50) (in assay [2]; on PCSK9 [3]; in assay [4]) were greater than 40 µM, 2.8 nM and greater than 10 µM, respectively.
On to `Cn1c(=O)n(-c2ccc(N[C@H]3CC[C@H](Nc4ncc(C5CC5)nn4)C3)nc2)c2ccc(C(=O)O)cc21` [Example 121, 1-(6-(((1S,3S)-3-((6-Cyclopropyl-1,2,4-triazin-3-yl)amino)cyclopentyl)amino)pyridin-3-yl)-3-methyl-2-oxo-2,3-dihydro-1H-benzo[d]imidazole-5-carboxylic acid], for which the EC50 on PCSK9 [1] worked out at 100 nM. Further, the IC50 in assay [2] is greater than 40 µM; against PCSK9 [3], 1 nM; in assay [4], 5.05 µM.
For `Cc1cnc(N[C@H]2CC[C@H](Nc3ccc(-n4cccc(C)c4=O)cn3)C2)nn1` [Example 131, 3-Methyl-6′-(((1S,3S)-3-((6-methyl-1,2,4-triazin-3-yl)amino)cyclopentyl)amino)-2H-[1,3′-bipyridin]-2-one], at PCSK9 [1], the EC50 is 100 nM. In addition, the results for the IC50 (in assay [2]; against PCSK9 [3]; in assay [4]) were greater than 72.6 µM, 2.7 nM and greater than 10 µM, respectively.
The like results for `Cc1cnc(N[C@H]2CC[C@H](Nc3ccc(-n4cccc(Cl)c4=O)cn3)C2)nn1` [Example 129, 3-Chloro-6′-(((1S,3S)-3-((6-methyl-1,2,4-triazin-3-yl)amino)cyclopentyl)amino)-2H-[1,3′-bipyridin]-2-one] were, in that order, 100 nM, greater than 40 µM, 1.6 nM and 4.85 µM.
In the same order, the values of `Cn1c(=O)n(-c2ccc(N[C@H]3CC[C@H](Nc4ncc(C5CC5)nn4)C3)nc2)c2cc(C#N)ccc21` [Example 116, 3-(6-(((1S,3S)-3-((6-Cyclopropyl-1,2,4-triazin-3-yl)amino)cyclopentyl)amino)pyridin-3-yl)-1-methyl-2-oxo-2,3-dihydro-1H-benzo[d]imidazole-5-carbonitrile] are 100 nM, 12 µM, 0.7 nM and greater than 10 µM.
Turning to `Cc1cnc(N[C@H]2CC[C@H](Nc3ccc(-n4cccc(OC(F)F)c4=O)cn3)C2)nn1` [Example 187, 3-(Difluoromethoxy)-6′-(((1S,3S)-3-((6-methyl-1,2,4-triazin-3-yl)amino)cyclopentyl)amino)-2H-[1,3′-bipyridin]-2-one], at PCSK9 [1], the EC50 turned out to be 100 nM. The IC50 in assay [2] is greater than 40.1 µM; against PCSK9 [3], 2.1 nM; in assay [4] it was 3.78 µM.
As for `CNC(=O)c1cnc(N[C@H]2CC[C@H](Nc3ccc(-n4ccccc4=O)cn3)C2)nn1` [Example 75, N-Methyl-3-(((1S,3S)-3-((2-oxo-2H-[1,3′-bipyridin]-6′-yl)amino)cyclopentyl)amino)-1,2,4-triazine-6-carboxamide], on PCSK9 [1], the EC50 came to 700 nM. Also, the IC50 in assay [2] is greater than 40 µM; at PCSK9 [3], 33 nM; in assay [4], greater than 10 µM.
The like results for `COc1ccc(=O)n(-c2ccc(N[C@H]3CC[C@H](Nc4ncc(C)nn4)C3)nc2)c1` [Example 133, 5-Methoxy-6′-(((1S,3S)-3-((6-methyl-1,2,4-triazin-3-yl)amino)cyclopentyl)amino)-2H-[1,3′-bipyridin]-2-one] were, in that order, 400 nM, greater than 40 µM, 17 nM and 0.032 µM.
Take `Cn1c(=O)n(-c2ccc(N[C@H]3CC[C@H](Nc4ncc(C5CC5)nn4)C3)nc2)c2ncccc21` [Example 63, 3-(6-(((1S,3S)-3-((6-Cyclopropyl-1,2,4-triazin-3-yl)amino)cyclopentyl)amino)pyridin-3-yl)-1-methyl-1,3-dihydro-2H-imidazo[4,5-b]pyridin-2-one]: on PCSK9 [1], the EC50 stood at 100 nM. In addition, the IC50 in assay [2] is greater than 40 µM; in assay [4] it was greater than 10 µM.
